# Tests used:
# SPP1 = assay: Whole genome mRNA profiling, whole blood + RANTES: SPP1; format: cell-based, human; details: probe 209875_s_at; healthy volunteer whole blood, RANTES 100 nM +/- BMS-817399 1 uM; 24 hours
# Experimental: (§1) Gene profiling experiments to identify genes downstream of CCR1 signaling (via CCR1 ligand stimulation) were performed. It was shown that these genes were blocked following treatment with a CCR1 antagonist. Whole blood from three healthy volunteers was treated with RANTES (100 nM, CCL5), in the presence and absence of the CCR1 antagonist (50 nM, 1 μM) for 4 and 24 hours. Following the incubation, mRNA was isolated for whole genome mRNA profiling.
# (§2) Lyophilized human recombinant CCR1 ligand RANTES (Peprotech, Rocky Hill, N.J.) was reconstituted to 100 μM per the manufacturer's instructions. BMS-817399 was reconstituted to 10 mM in 100% DMSO (Sigma-Aldrich, St. Louis Mo.) and further diluted 1:50 in 10% DMSO. […] RNA quantity and quality were assessed on the ND-8000 spectrophotometer (Thermo Scientific, Wilmington, Del.) and RNA integrity was assessed on the AGILENT® 2100 Bioanalyzer using the RNA 6000 Nano Lab Chip kit (Agilent Technologies, Santa Clara, Calif.).
# (§3) RNA samples with yields ≧1.5 μg and RIN (RNA integrity number) values of 6.5 and above were randomized in 96-well plates and normalized to a concentration of 250 ng/μL in preparation for microarray analysis. […] Data obtained from the microarray analysis were analyzed by statisticians internal to Bristol-Myers Squibb. […]
# CD86 = assay: Whole genome mRNA profiling, whole blood + RANTES: CD86; format: cell-based, human; details: probe 210895_s_at; healthy volunteer whole blood, RANTES 100 nM +/- BMS-817399 1 uM
# Experimental: as §1, §2, §3
# KYNU = assay: Whole genome mRNA profiling, whole blood + RANTES: KYNU; format: cell-based, human; details: probe 217388_s_at; healthy volunteer whole blood, RANTES 100 nM +/- BMS-817399 1 uM
# Experimental: as §1, §2, §3
# PHLDA2 = assay: Whole genome mRNA profiling, whole blood + RANTES: PHLDA2; format: cell-based, human; details: probe 209803_s_at; healthy volunteer whole blood, RANTES 100 nM +/- BMS-817399 1 uM
# Experimental: as §1, §2, §3
# MERTK [1] = assay: In vitro treatment of RA patient whole blood, qRT-PCR: MERTK; format: cell-based, human; details: 500 nM CCR1 antagonist, 3 hours
# Experimental: (§4) FIGS. 3A-B show relative CLEC5A and MERTK expression levels in RA patient blood. Whole blood from RA patients was shipped overnight and treated with 500 nM CCR1 antagonist for 3 hours. RNA was isolated and analyzed by qRT-PCR. Expression levels are represented as mRNA levels relative to the untreated control samples as a function of treatment condition. Percent inhibition of gene expression by the investigational drug was calculated and is represented as “% change”. C-reactive protein (CRP) levels of subjects, as determined by Bioreclamation, are listed as well.
# (§5) Whole blood, collected from RA patients, was stimulated with 500 nM of a CCR1 antagonist for 3 hours at 37° C. After the incubation, RNA was isolated and the gene expression levels of CLEC5A, MERTK, and the endogenous control HPRT1 were assessed by qRT-PCR for each subject. CLEC5A and MERTK mRNA levels (normalized to that of HPRT1) were calculated relative to the untreated control sample for each patient.
# (§6) Whole blood, drawn in EDTA VACUTAINER® tubes from RA patients, was obtained from Bioreclamation for in vitro treatment with BMS-817399 and subsequent qRT-PCR analysis. […] Serum CRP and whole blood ESR levels of qualified subjects were also assessed by Bioreclamation. […] Data were analyzed in the SDS software for relative quantitation. […]
# FPRL2 = assay: Whole genome mRNA profiling, whole blood + RANTES: FPRL2; format: cell-based, human; details: probe 214560_at; healthy volunteer whole blood, RANTES 100 nM +/- BMS-817399 1 uM; 4 hours
# Experimental: as §1, §2, §3
# MERTK [2] = assay: Phase 1 trial, ex vivo RANTES-stimulated whole blood qRT-PCR: MERTK; format: in vivo, human; details: healthy volunteers, single and multiple oral doses; ex vivo 25 nM RANTES, 2 hours, 37° C.
# Experimental: (§7) FIGS. 2A-D show relative CLEC5A and MERTK expression levels in a Phase I clinical trial. Healthy volunteers were treated with single or multiple doses of a CCR1 antagonist through oral administration at various dose levels; blood samples from subjects were treated ex vivo with CCR1 ligand RANTES. RNA was isolated and analyzed by qRT-PCR. Expression levels are represented as (negative) change in median CT (cycle threshold) value between the target (CLEC5A or MERTK) and the endogenous control (GAPDH) as a function of time.
# (§8) In this study (Example 2), healthy volunteers were treated with single or multiple doses of a CCR1 antagonist through oral administration at various dose levels. Pharmacodynamic effects of the compound were assessed using an ex vivo functional assay at various times post dosing. For the assay, whole blood was collected at indicated time points following dosing with the CCR1 antagonist and stimulated ex vivo for 2 hours at 37° C. with 25 nM recombinant human RANTES. After the incubation, RNA was isolated and CLEC5A and MERTK mRNA levels, relative to the GAPDH housekeeping gene, were measured by qRT-PCR in triplicate at each time-point for each subject. The median cycle time (CT) for each gene was evaluated and changes in the CT values (ΔCT) were calculated by subtracting the median GAPDH CT value from the corresponding median values for CLEC5A CT or MERTK CT. […]
# CSPG2 = assay: Whole genome mRNA profiling, whole blood + RANTES: CSPG2; format: cell-based, human; details: probe 204620_s_at; healthy volunteer whole blood, RANTES 100 nM +/- BMS-817399 1 uM
# Experimental: as §1, §2, §3
# CLEC5A [3] = assay: Phase 1 trial, ex vivo RANTES-stimulated whole blood qRT-PCR: CLEC5A; format: in vivo, human; details: healthy volunteers, single and multiple oral doses; ex vivo 25 nM RANTES, 2 hours, 37° C.
# Experimental: as §7, §8
# TLR8 = assay: Whole genome mRNA profiling, whole blood + RANTES: TLR8; format: cell-based, human; details: probe 220832_at; healthy volunteer whole blood, RANTES 100 nM +/- BMS-817399 1 uM
# Experimental: as §1, §2, §3
# CLEC5A [4] = assay: Whole genome mRNA profiling, whole blood + RANTES: CLEC5A; format: cell-based, human; details: probe 219890_at; healthy volunteer whole blood, RANTES 100 nM +/- BMS-817399 1 uM; 4 hours
# Experimental: as §1, §2, §3
# CLEC5A [5] = assay: In vitro treatment of RA patient whole blood, qRT-PCR: CLEC5A; format: cell-based, human; details: 500 nM CCR1 antagonist, 3 hours
# Experimental: as §4, §5, §6
# FCN1 = assay: Whole genome mRNA profiling, whole blood + RANTES: FCN1; format: cell-based, human; details: probe 206237_at; healthy volunteer whole blood, RANTES 100 nM +/- BMS-817399 1 uM; 24 hours
# Experimental: as §1, §2, §3
# [6] = Phase 1 trial in healthy human subjects: safety; format: in vivo
# Description: Current standard of care for the treatment of RA includes disease-modifying anti-rheumatic drugs that decrease immune activation and subsequent inflammation. However, a large proportion of patients are non-responsive to these medications, thus resulting in progression of disease symptoms. […] Further, identification of predictive biomarkers may allow for patient stratification in future clinical trials. Identification of patients most likely to respond favorably to the CCR1 antagonist may provide justification for use of a CCR1 antagonist earlier in the course of treatment, potentially preventing extensive structural damage of the joints.
# MERTK [7] = assay: Whole genome mRNA profiling, whole blood + RANTES: MERTK; format: cell-based, human; details: probe 206028_s_at; healthy volunteer whole blood, RANTES 100 nM +/- BMS-817399 1 uM; 4 hours
# Experimental: as §1, §2, §3
structure (smiles),measurement,setting,value
CC(C)[C@@H](NC(=O)NCC(C)(C)O)C(=O)N1CC[C@](O)(c2ccc(Cl)cc2)C(C)(C)C1 [BMS-817399],"SPP1 (osteopontin) expression, Fold Change",SPP1,−6.547
same,"SPP1 (osteopontin) expression, Mean",SPP1,−2.711
same,"CD86 expression, Fold Change",CD86,−2.559
same,"CD86 expression, Mean",CD86,−1.356
same,"KYNU (kynureninase) expression, Fold Change",KYNU,−2.32
same,"KYNU (kynureninase) expression, Mean",KYNU,−1.214
same,"PHLDA2 expression, Fold Change",PHLDA2,−2.252
same,"PHLDA2 expression, Mean",PHLDA2,−1.171
same,decrease of MERTK expression levels relative to the untreated control samples,MERTK [1],more than 30%
same,"FPRL2 expression, Fold Change",FPRL2,−3.571
same,"FPRL2 expression, Mean",FPRL2,−1.836
same,inhibition of MERTK gene expression in whole blood,MERTK [2],rapid and potent inhibition
same,"CSPG2 (versican) expression, Fold Change",CSPG2,−4.39
same,"CSPG2 (versican) expression, Mean",CSPG2,−2.134
same,inhibition of CLEC5A gene expression in whole blood,CLEC5A [3],rapid and potent inhibition
same,"TLR8 expression, Fold Change",TLR8,−2.232
same,"TLR8 expression, Mean",TLR8,−1.158
same,"CLEC5A expression, Fold Change",CLEC5A [4],−5.123
same,"CLEC5A expression, Mean",CLEC5A [4],−2.357
same,decrease of CLEC5A expression levels relative to the untreated control samples,CLEC5A [5],more than 30%
same,"FCN1 (ficolin 1) expression, Fold Change",FCN1,−2.234
same,"FCN1 (ficolin 1) expression, Mean",FCN1,−1.16
same,safety profile,[6],acceptable safety profile
same,"MERTK expression, Fold Change",MERTK [7],−2.417
same,"MERTK expression, Mean",MERTK [7],−1.274
